The record followed here is patent US20130253179A1, “Functionalization Processes and Reactants Used in Such Processes Using an Isatoic Anhydride or a Derivative Thereof, Biological Molecules Thus Treated and Kits” (priority 2010, published 2013).

In data set [1] the test system is HIV WT transcript. The data set is described as follows: NASBA amplification of functionalised, captured and eluted HIV transcripts. The class given is biochemical. Here is the method: In the preceding example 12, 4 μg of a WT HIV transcript (1083 nucleotides, internal production, bioMérieux batch 841470301, C=3.27E12 copies μl) was biotinylated with different concentrations of the compound (24) (0 mM, 15 mM, 30 mM, 120 mM, 180 mM, i.e. the experiments #1-7 of Table 6). This transcript was then captured on Merck MagPrep 25 Streptavidin magnetic particles, then, after rinsing, the particles were subjected to a 100 mM DTT treatment in PBS 1x pH 7 at 40° C. for one hour, in order to cleave the disulfide bond (SS) and elute the transcripts with —SH anthranilate groups, as shown in FIG. 16. We evaluated the ability of these transcripts to be amplified by the NASBA technology. This evaluation was performed as a comparison with an unfunctionalised “bare” HIV_WT transcript range.
The amplification is performed on a NucliSENS EasyQ instrument (bioMérieux, Lyon, France) and with a NucliSENS EasyQ HIV-1 V2.0 kit (bioMérieux, Lyon, France, ref. 285033, batch 09122106). The software used is NucliSENS EasyQ Director, and the protocol is QL1-60 1.0 (bioMérieux, Lyon, France).
After functionalisation with compound 24, capture and elution in 8 μL of 100 mM DTT, as described in example 12, the transcripts of experiments #2-5 from Table 7 were assayed on RNA 6000 NANO chip with the AGILENT bioanalyzer (Santa Clara, USA), and were diluted in the following concentrations: 1000 copies, 100 copies, 50 copies, 10 copies, 1 copy, 0 copies in 15 μl. An HIV IC transcript (internal control of the same amplified sequence as the WT (wild type) transcript, but detected by a molecular beacon carrying another fluorophore) diluted to 360 copies is added to the 15 μl volume, and will be present in all of the wells in which the amplifications occur. This transcript serves to monitor the correct operation of the amplification. The tests are carried out in triplicate.
Six Accuspheres ENZ II (NucliSENS EasyQ HIV-1 V2.0 kit, ref. 285033, bioMérieux, Lyon, France) are deposited into a 1.5 ml polypropylene tube. A volume of 270 μL of ENZdil H (NucliSENS EasyQ HIV-1 V2.0 kit, ref. 285033, bioMérieux, Lyon, France) is added onto the Accuspheres, and 15 minutes are allowed to pass, for them to dissolve completely. The twelve Accuspheres PRM H (NucliSENS EasyQ HIV-1 V2.0 kit, ref. 285033, bioMérieux, Lyon, France) are deposited into a 1.5 ml polypropylene tube 1080 μL of PRMdi l H (NucliSENS EasyQ HIV-1 V2.0 kit, ref. 285033, bioMérieux, Lyon, France) is added onto these Accuspheres and the mixture is immediately vortex stirred until the Accuspheres dissolve completely. After complete dissolution in the two tubes (mix ENZ II and mix PRM H), these mixtures are centrifuged with a benchtop centrifuge. […]

Data set [2] has as its system MAQC RNA. In words: DoL of MAQC total RNA after zinc acetate cleaving and alkaline phosphatase treatment. The class given is biochemical, human. Conditions: compound 15 mM. Here is the method: The panel of RNA strands is MAQC RNA (Stratagene Reference: #74000). This total RNA (ribosomal and messenger) is directly extracted from ten lines of human cells of different origin: brain, breast, B Lymphocyte, uterine cervix, liver, liposarcoma, macrophage, skin, testicle, Lymphocyte T.
The functionalisation protocol is the same as that described in example 9, i.e.: • 12 μg of MAQC0 RNA is incubated, or not, with a Zinc acetate solution. • The mixture is precipitated with isopropanol. • 7 units of alkaline phosphatase (P7923-2KU Sigma-Aldrich) are added to the mixture, […] There is then added to the mixture the molecule Cy3-IA Me 13 at 15 mM in a NaHCO3 buffer (100 mM/DMSO 75/25 pH 8-8.5), with a total volume of 80 μl. The mixture is incubated for 1 h at 65° C. • The mixture is precipitated once again with isopropanol, then twice with acetone, before the DoL is measured as described in example 9.

The nature of data set [3]: Solubility in water.

With `Cn1c(=O)oc(=O)c2cc(NC(=O)CCSSCCNC(=O)CCOCCOCCOCCOCCNC(=O)CCCCC3SCC4NC(=O)NC43)ccc21` (stereo not drawn) [5Biot PEG4 SS IA Me 24], the “Minimum number of copies detected” value in data set [1] (15 mM functionalisation reagent) was 10 copies; in data set [1] (30 mM functionalisation reagent), 10 copies; in data set [1] (120 mM functionalisation reagent), 100 copies; in data set [1] (180 mM functionalisation reagent), 1000 copies.

Consider `CCN1/C(=C\C=C\C2=[N+](CCCCCC(=O)Nc3ccc4c(c3)c(=O)oc(=O)n4C)c3ccc(S(=O)(=O)[O-])cc3C2(C)C)C(C)(C)c2cc(S(=O)(=O)[O-])ccc21.[K+]` [Cy3 IA Me 13, 1-methyl 5-Cy3-isatoic anhydride], for which the DoL in data set [2] (10 mM Zn(OAc)2 0 mins, AP hydrolysis 0) is listed as 1.7%; in data set [2] (10 mM Zn(OAc)2 0 mins, AP hydrolysis 4 h) it was 1.5%; in data set [2] (10 mM Zn(OAc)2 15 mins, AP hydrolysis 0) it was 1.7%; in data set [2] (10 mM Zn(OAc)2 15 mins, AP hydrolysis 4 h), 2.5%. Besides, the solubility (commonly the concentration that dissolves in the medium under given conditions) in data set [3] was over 100 mM.
